This is an account of results in US8710059B2, “N-phenyl-(homo)piperazinyl-benzenesulfonyl or benzenesulfonamide compounds suitable for treating disorders that respond to the modulation of the serotonin 5-HT6 receptor” (Abbott Laboratories, priority 2010, dated 2014).

By Kd is commonly meant the equilibrium constant for the complex coming apart.

The target in this test is T1, dopamine D2 receptor (Homo sapiens, UniProt P14416).
T1 construct: expressed in transfected cells
Kind of test: Dopamine D2 receptor binding assay (displacement of [125I]-iodospiperone). The conditions noted are these: saturation binding experiments, HEK293 D2 membranes. How it is done: 1. […] The pellets were stored at −80° C. until use. […] (Beckman Ultrazentrifuge XL 80). […] 2. Receptor Binding Experiments
b) Dopamine D2 Receptor Binding Assay
Non-specific binding was defined with 1 μM haloperidol.
For orientation: Displacement assays read how much labelled ligand stays bound in the presence of the test substance.

T1 sequence (P14416 whole entry): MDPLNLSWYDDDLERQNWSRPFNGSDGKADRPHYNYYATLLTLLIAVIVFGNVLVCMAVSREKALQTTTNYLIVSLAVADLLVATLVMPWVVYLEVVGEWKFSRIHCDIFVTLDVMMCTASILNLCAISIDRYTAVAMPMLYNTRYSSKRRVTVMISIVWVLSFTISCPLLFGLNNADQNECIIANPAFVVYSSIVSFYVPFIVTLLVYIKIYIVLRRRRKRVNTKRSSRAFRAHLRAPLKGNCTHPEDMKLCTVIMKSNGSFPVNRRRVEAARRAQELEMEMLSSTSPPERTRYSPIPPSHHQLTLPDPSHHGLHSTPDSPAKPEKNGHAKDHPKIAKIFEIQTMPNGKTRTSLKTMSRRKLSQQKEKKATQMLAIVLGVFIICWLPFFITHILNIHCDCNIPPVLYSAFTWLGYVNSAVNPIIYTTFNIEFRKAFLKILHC

Turning to iodospiperone [[^125I]-iodospiperone], binding was put at a Kd of 220 pM.
